Patent US4118585A, “Anionic benzene tetrakis carbonylimino isophthalic acid salts” (priority 1977, dated 1978)

Columns and labels:
activated human C1 = test: Test, Code 026 (C1 inhibitor); assay type: biochemical; details: serial two-fold dilution assay; higher well number indicates higher activity
From the text: (§1) An active inhibitor protects C2 from C1 and C4; (ii) Test, Code 035 (C3-C9 inhibitor) -- This test determines the ability of the late components of human complement (C3-C9) to lyse EAC 142 in the presence of appropriate dilutions of the test compound. An active inhibitor protects EAC 142 from lysis by human C3-C9; (iii) Test, Code 036 (C-Shunt inhibitor) -- In this test human erythrocytes rendered fragile are lysed in autologous serum via the shunt pathway activated by cobra venom factor in the presence of appropriate dilutions of the test compound. Inhibition of the shunt pathway results in failure of lysis; (iv) Forssman Vasculitis Test -- Here, the well known complement dependent lesion, Forssman vasculitis, is produced in guinea pigs by intradermal injection of rabbit anti-Forssman antiserum. […]

[1] = test system: late components of human complement (C3-C9); test: Test, Code 035 (C3-C9 inhibitor); assay type: biochemical; parameters: key: N=Negative; details: serial two-fold dilution assay; lysis of EAC 142 by human C3-C9
From the text: as §1

[2] = test system: shunt pathway activated by cobra venom factor; test: Test, Code 036 (C-Shunt inhibitor); assay type: cell-based; details: serial two-fold dilution assay; fragile human erythrocytes in autologous serum
From the text: as §1

## O=C([O-])c1cc(NC(=O)c2cc(C(=O)Nc3cc(C(=O)[O-])cc(C(=O)[O-])c3)c(C(=O)Nc3cc(C(=O)[O-])cc(C(=O)[O-])c3)cc2C(=O)Nc2cc(C(=O)[O-])cc(C(=O)[O-])c2)cc(C(=O)[O-])c1.[Na+].[Na+].[Na+].[Na+].[Na+].[Na+].[Na+].[Na+] [5,5',5",5'"-[1,2,4,5-Benzenetetrayltetrakis(carbonylimino)]-tetraisophthalic acid octasodium salt]
Activated human C1
  Cl 026 Wells: +7 Wells
[1]
  C-Late 035 Wells: N
[2]
  Shunt Inhibition 036 Wells: +3 Wells
